{"source": "patent US10617709B2", "about": "“miRNAs as novel therapeutic adjuvants and biomarkers for the prognosis and treatment of drug resistant breast cancers” (THE BOARD OF REGENTS OF THE UNIVERSITY OF TEXAS SYSTEM, priority 2012, dated 2020)", "test_system": "Tumor explants from TNBC patients", "test": "Ex-vivo tumor explant model, Ki67 IHC", "design": "species or system human", "conditions": "for Ki67 levels: paclitaxel 1 μM, 48 hours", "description": "To further establish the efficacy of these miRNAs in treating TNBC, we used ex-vivo tumor explant model. Freshly excised breast cancer tissues were dissected into 1 mm^3 specimens, placed on hydrated gelatin sponge in explant media supplemented with hydrocortisone and insulin at 37° C. in the CO2 incubator. Tumor explants from TNBC patients were treated with paclitaxel and tissues were gently removed, fixed in 10% neutral buffered formalin and processed for paraffin blocks. IHC analyses were conducted to determine the Ki67 levels. IHC of surgical specimens and explants reveal that explants retain the tissue architecture and proliferation properties of the original surgical specimen. […] FIG. 15.\nTumor explants growing on the gelatin sponge were treated with either sensitizer miRNA (75 nM) alone or paclitaxel (1 μM) alone or with miRNA (75 nM) and paclitaxel (1 μM) together. […] FIG. 16."}
{"smiles": "CC(=O)O[C@H]1C(=O)[C@@]2(C)[C@H]([C@H](OC(=O)c3ccccc3)[C@]3(O)C[C@H](OC(=O)[C@H](O)[C@@H](NC(=O)c4ccccc4)c4ccccc4)C(C)=C1C3(C)C)[C@]1(OC(C)=O)CO[C@@H]1C[C@@H]2O", "note": "[paclitaxel]", "values": [{"measurement": "response to paclitaxel (Ki67 staining)", "setting": "advanced stage TNBC explant", "value": "not responsive"}, {"measurement": "Ki67 staining", "setting": "non-relapsed TNBC explant", "value": "inhibition of Ki67 staining"}, {"measurement": "Ki67 levels", "setting": "relapsed / advanced stage TNBC explants, sensitizer miRNA 75 nM", "value": "did not result in significant change"}, {"measurement": "Ki67 levels", "setting": "responsive TNBC (early stage cancer) explants", "value": "significant inhibition of Ki67 levels"}]}
